The results in this text go back to ChEMBL document CHEMBL4002618, “Anticomplement triterpenoids from the roots of Ilex asprella” (2017).

Activity calls are given as the source filed them. The rule behind the calls is not given here.

The test system of test [1] is Erythrocyte. The test is described as follows: Anticomplement activity in sheep erythrocytes assessed as concentration required for 50% hemolytic inhibition by classic pathway preincubated for 10 mins with guinea pig serum followed by erythrocyte addition measured after 30 mins by spectrophotometer. In kind it is functional, Ovis aries.
In test [2] the test system is Erythrocyte. The test is described as follows: Anticomplement activity in sheep erythrocytes assessed as inhibition of hemolysis by classical pathway after 30 mins of compound treatment in normal human serum with C9-depleted sera. In kind it is functional, cell-based. To be noted: Ovis aries.
Test [3] relates to Erythrocyte. The experiment in a line: Anticomplement activity in New Zealand White rabbit erythrocytes assessed as concentration required for 50% hemolytic inhibition by alternative pathway preincubated for 10 mins with normal human serum followed by erythrocyte addition measured after 30 mins by spectrophotometer. In kind it is functional, Oryctolagus cuniculus.
Test [4] has as its system Erythrocyte. The experiment in a line: Anticomplement activity in sheep erythrocytes assessed as inhibition of hemolysis by classical pathway after 30 mins of compound treatment in normal human serum with C1q-depleted sera. Format: functional, cell-based. To be noted: Ovis aries.
The test system of test [5] is Erythrocyte. The experiment in a line: Anticomplement activity in sheep erythrocytes assessed as inhibition of hemolysis by classical pathway after 30 mins of compound treatment in normal human serum with C2-depleted sera. Format: functional, cell-based. To be noted: Ovis aries.
Test [6] has as its system Erythrocyte. The test is described as follows: Anticomplement activity in sheep erythrocytes assessed as inhibition of hemolysis by classical pathway by measuring hemolysis after 30 mins of compound treatment in normal human serum with C3-depleted sera relative to control. Format: functional, Ovis aries. Details: scale not given: the % may be the effect or the level left.

Test [7] deals with Erythrocyte. The test is described as follows: Anticomplement activity in sheep erythrocytes assessed as inhibition of hemolysis by classical pathway after 30 mins of compound treatment in normal human serum with C5-depleted sera. Format: functional, cell-based. To be noted: Ovis aries.
Test [8] has as its system Erythrocyte. The experiment in a line: Anticomplement activity in sheep erythrocytes assessed as inhibition of hemolysis by classical pathway by measuring hemolysis after 30 mins of compound treatment in normal human serum with C9-depleted sera relative to control. Format: functional, Ovis aries. Details: scale not given: the % may be the effect or the level left.
Test [9] deals with Erythrocyte. The experiment in a line: Anticomplement activity in sheep erythrocytes assessed as inhibition of hemolysis by classical pathway by measuring hemolysis after 30 mins of compound treatment in normal human serum with C4-depleted sera relative to control. In kind it is functional, Ovis aries. Details: scale not given: the % may be the effect or the level left.
The subject of test [10] is Erythrocyte. The test is described as follows: Anticomplement activity in sheep erythrocytes assessed as inhibition of hemolysis by classical pathway after 30 mins of compound treatment in normal human serum with C4-depleted sera. In kind it is functional, cell-based. To be noted: Ovis aries.
For test [11], the system named is Erythrocyte. The experiment in a line: Anticomplement activity in sheep erythrocytes assessed as inhibition of hemolysis by classical pathway after 30 mins of compound treatment in normal human serum with C3-depleted sera. In kind it is functional, cell-based. The following applies: Ovis aries.

On to `C=C1[C@@H](O)[C@H](O)C[C@]2(C)[C@H]3CC=C4[C@@H]5CC(C)(C)CC[C@]5(C(=O)O)CC[C@@]4(C)[C@]3(C)CC[C@@H]12`, for which the Activity stood at 0.09 mg/mL in test [1] and 0.308 mg/mL in [3]. The result in test [2], in test [4] and in [5] was Active.

Take `COC(=O)[C@]12CCC(C)(C)C[C@H]1C1=CC[C@@H]3[C@@]4(C)CC[C@H](O)C(C)(C)[C@@H]4CC[C@@]3(C)[C@]1(COC(=O)/C=C/c1ccc(O)cc1)CC2`: the Activity in [6] was less than 18.3%; in [1] it was 0.094 mg/mL; in [8], less than 18.3%; in test [9] it was less than 18.3%; in test [3], 0.444 mg/mL. For the same molecule, the result in test [7], in test [4] and in test [5] was inactive.

Turning to `COC(=O)[C@]12CC[C@@H](C)[C@H](C)[C@H]1C1=CC[C@@H]3[C@@]4(C)CC[C@H](O)C(C)(C)[C@@H]4CC[C@@]3(C)[C@]1(COC(=O)/C=C/c1ccc(O)c(O)c1)CC2`, the Activity in test [6] is less than 18.3%; in test [1] it was 0.058 mg/mL; in test [8], less than 18.3%; in test [9] it was less than 18.3%; in [3], 0.08 mg/mL. Moreover, the result in [7], in [4] and in test [5] was inactive.

On to `COC(=O)[C@H]1O[C@@H](O[C@H]2CC[C@]3(C)[C@H]4CC=C5[C@H]6[C@](C(=O)O)(CC[C@@H](C)[C@@]6(C)O)CC[C@@]5(C)[C@]4(C)CC[C@H]3C2(C)C)[C@H](O)[C@@H](O)[C@@H]1O`, for which the outcome in test [1] (Ovis aries) and in test [3] (Oryctolagus cuniculus) was inactive.

With `COC(=O)[C@]12CC[C@@H](C)[C@@](C)(O)[C@H]1C1=CC[C@@H]3[C@@]4(C)CC[C@H](O)C(C)(C)[C@@H]4CC[C@@]3(C)[C@]1(COC(=O)/C=C/c1ccc(O)c(OC)c1)CC2`, the Activity was 0.131 mg/mL in [1] and 0.319 mg/mL in [3].

In the case of `CC1=C2[C@H](O)C[C@]3(C)[C@H]([C@@H]4O[C@@H]4[C@]45OC(=O)[C@@]6(CCC(C)(C)C[C@H]64)CC[C@]53C)[C@@]2(C)C=C(O)C1=O`, the Activity in [1] was 0.38 mg/mL; in [3], 0.944 mg/mL.

`CC1(C)CC[C@]2(C(=O)O)CC[C@]3(COC(=O)/C=C/c4ccc(O)cc4)C(=CC[C@@H]4[C@@]5(C)CC[C@H](OC(=O)/C=C/c6ccc(O)cc6)C(C)(C)[C@@H]5CC[C@]43C)[C@@H]2C1`: the Activity was 0.072 mg/mL in [1] and 0.159 mg/mL in [3]. The outcome in test [7], in test [10], in [11] and in test [4] was Active. The result in test [2] and in test [5] was inactive.

As to `CC(=O)O[C@H]1[C@H](O[C@H]2CC[C@]3(C)[C@H]4CC=C5[C@H]6[C@](C(=O)O[C@@H]7O[C@H](CO)[C@@H](O)[C@H](O)[C@H]7O)(CC[C@@H](C)[C@@]6(C)O)CC[C@@]5(C)[C@]4(C)CC[C@H]3C2(C)C)OC[C@H](O)[C@@H]1O`, the result in [1] (Ovis aries) and in test [3] (Oryctolagus cuniculus) was inactive.

On to `C[C@@H]1CC[C@]2(C(=O)O[C@@H]3O[C@H](CO)[C@@H](O)[C@H](O)[C@H]3O)CC[C@]3(C)C(=CC[C@@H]4[C@@]5(C)CC[C@H](O[C@@H]6OC[C@H](O)[C@H](O)[C@H]6O)C(C)(C)[C@@H]5CC[C@]43C)[C@@H]2[C@]1(C)O`, for which the result in test [1] (Ovis aries) and in test [3] (Oryctolagus cuniculus) was inactive.

In the case of `C[C@@H]1CC[C@]2(C(=O)O)CC[C@]3(C)C(=CC[C@@H]4[C@@]5(C)CC[C@H](O[C@@H]6OC[C@H](O)[C@H](O)[C@H]6O)C(C)(C)[C@@H]5CC[C@]43C)[C@@H]2[C@]1(C)O`, the result in test [1] (Ovis aries) and in test [3] (Oryctolagus cuniculus) was inactive.

Turning to `COC(=O)[C@]12CCC(C)(C)C[C@H]1C1=CC[C@@H]3[C@@]4(C)CC[C@H](O)C(C)(C)[C@@H]4CC[C@@]3(C)[C@]1(COC(=O)/C=C/c1ccc(O)c(O)c1)CC2`, the Activity in [6] was less than 18.3%; in test [1] it was 0.063 mg/mL; in test [8], less than 18.3%; in [9], less than 18.3%; in test [3] it was 0.089 mg/mL. The outcome in [7], in [4] and in test [5] was inactive.

As for `C[C@H]1CC[C@]2(C(=O)O[C@@H]3O[C@H](CO)[C@@H](O)[C@H](O)[C@H]3O)CC[C@]3(C)C(=CC[C@@H]4[C@@]5(C)CC[C@H](O[C@@H]6OC[C@@H](O)[C@H](O)[C@H]6O)C(C)(C)[C@@H]5CC[C@]43C)[C@@H]2[C@]1(C)O`, the result in test [1] (Ovis aries) and in [3] (Oryctolagus cuniculus) was inactive.

`C[C@@H]1CC[C@]2(C(=O)O[C@@H]3O[C@H](CO)[C@@H](O)[C@H](O)[C@H]3O)CC[C@]3(C)C(=CC[C@@H]4[C@@]5(C)CC[C@H](O[C@@H]6OC[C@@H](O)[C@H](O)[C@H]6O)C(C)(C)[C@@H]5CC[C@]43C)[C@@H]2[C@]1(C)O`: the outcome in test [1] (Ovis aries) and in test [3] (Oryctolagus cuniculus) was inactive.

Turning to `C[C@H]1[C@H](C)CC[C@]2(C(=O)O)CC[C@]3(C)C(=CC[C@@H]4[C@@]5(C)CC[C@H](O)C(C)(C)[C@@H]5CC[C@]43C)[C@H]12` [URSOLIC ACID], the Activity is 0.278 mg/mL in [1] and 0.493 mg/mL in test [3].

Consider `C=C1[C@@H](O)[C@H](O)C[C@]2(C)[C@H]3CC=C4[C@@H]5[C@@H](C)[C@H](C)CC[C@]5(C(=O)O)CC[C@@]4(C)[C@]3(C)CC[C@@H]12` [ILEKUDINOL B], for which the Activity in [1] turned out to be 0.123 mg/mL; in test [3], 0.586 mg/mL.

On to `C=C1[C@@H](O)[C@H](O)C[C@]2(C)[C@H]3[C@@H]4O[C@@H]4[C@]45OC(=O)[C@@]6(CC[C@@H](C)[C@H](C)[C@H]64)CC[C@@]5(C)[C@]3(C)CC[C@@H]12` [ULMOIDOL], for which the Activity in test [1] came out at 0.429 mg/mL; in [3] it was 0.794 mg/mL.

`C=C1[C@@H](O)[C@H](O)C[C@]2(C)[C@H]3[C@@H]4O[C@@H]4[C@]45OC(=O)[C@@]6(CCC(C)(C)C[C@H]64)CC[C@@]5(C)[C@]3(C)CC[C@@H]12`: the Activity in test [1] was 0.357 mg/mL; in test [3] it was 0.781 mg/mL.

On to `C[C@@H]1CC[C@]2(C(=O)O)CC[C@]3(C)C(=CC[C@@H]4[C@@]5(C)CC[C@H](O)[C@@](C)(CO)[C@@H]5CC[C@]43C)[C@@H]2[C@]1(C)O` [ROTUNDIC ACID], for which the Activity was found to be 0.19 mg/mL in test [1] and 0.341 mg/mL in [3].

As for `C[C@H]1[C@H](C)CC[C@@]23CC[C@]4(C)[C@@](OC2=O)([C@H]13)[C@H]1O[C@H]1[C@@H]1[C@@]2(C)CC(=O)[C@H](O)[C@@H](C)[C@@H]2[C@H](O)C[C@]14C`, the Activity in [1] is 0.592 mg/mL; in test [3] it was 0.734 mg/mL.

As for `C=C1[C@@H](O)[C@H](O)C[C@]2(C)[C@H]3C=C[C@]45OC(=O)[C@@]6(CC[C@@H](C)[C@H](C)[C@H]64)CC[C@@]5(C)[C@]3(C)CC[C@@H]12` [ILEKUDINOL A], the figures for the Activity in test [1] and in [3] were 0.248 mg/mL and 0.658 mg/mL, respectively.
